From patent US7671212B2, “Isothiazole dioxides as CXC- and CC-chemokine receptor ligands” (Schering Corporation, priority 2003, dated 2010)
Several values for one entry are separate records, joined by “and”; a condition that tells them apart may be missing. Identical values can stand only once.

Tests used:
hCXCR2 = target: T1, hCXCR2 (Homo sapiens, UniProt P25025); test: CXCR2 SPA assay ([125I]-IL-8 binding, incl. alternative 50 μl and 200 μl protocols); settings: hCXCR2-CHO membranes
T1 construct: purchased Biosignal / Biosignal Packard; host or cells: CHO
T1 sequence (P25025 1-360): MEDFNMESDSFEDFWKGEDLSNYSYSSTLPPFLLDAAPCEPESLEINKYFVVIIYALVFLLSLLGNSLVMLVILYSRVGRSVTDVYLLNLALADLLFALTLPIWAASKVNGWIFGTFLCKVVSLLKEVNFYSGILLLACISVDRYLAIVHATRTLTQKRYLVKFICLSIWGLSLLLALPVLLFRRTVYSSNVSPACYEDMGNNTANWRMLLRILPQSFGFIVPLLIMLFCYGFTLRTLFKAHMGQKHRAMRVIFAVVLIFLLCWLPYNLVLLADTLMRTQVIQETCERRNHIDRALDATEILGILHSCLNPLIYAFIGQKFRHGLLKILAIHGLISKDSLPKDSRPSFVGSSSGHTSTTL
Procedure: For each well of a 96 well plate, a reaction mixture of 4 μg hCXCR2-CHO overexpressing membranes (Biosignal) and 200 μg/well WGA-SPA beads (Amersham) in 100 μl was prepared in CXCR2 assay buffer (25 mM HEPES, pH 7.4, 2 mM CaCl2, 1 mM MgCl2). A 0.4 nM stock of ligand, [125I]-IL-8 (NEN), was prepared in the CXCR2 assay buffer. 20× stock solutions of test compounds were prepared in DMSO (Sigma). A 6× stock solution of GRO-α (R&D) was prepared in CXCR2 assay buffer. The above solutions were added to a 96-well assay plate (PerkinElmer or Corning) as follows: 10 μl test compound or DMSO, 40 ul CXCR2 assay buffer or GRO-α stock, 100 μl of reaction mixture, 50 μl of ligand stock (Final [Ligand]=0.1 nM). When 40× stock solutions of test compounds in DMSO were prepared, then the above protocol was used except instead 5 μl test compound or DMSO and 45 μl CXCR2 assay buffer were used.
Alternative CXCR2 SPA Assay
Protocol Using the CXCR2 50 μl Assay
For each 50 μl reaction, a working stock of 0.031 μg/μl hCXCR2-CHO over-expressing membranes with a specific activity of 0.4 pmol/mg (Biosignal Packard) and 2.5 μg/μl WGA-SPA beads (Perkin Elmer Life Sciences) was prepared in CXCR2 assay buffer (25 mM HEPES, pH 7.4, 2.0 mM CaCl2, 1 mM MgCl2) (Sigma). This mixture was incubated on ice for 5 minutes. A 0.50 nM stock of ligand, [^125I]-IL-8 (Perkin Elmer Life Sciences), was prepared in the CXCR2 assay buffer. Test compounds were first serially diluted by half-logs in DMSO (Sigma) and then diluted 13.3-fold in CXCR2 assay buffer. The above solutions were added to a Corning NBS (non-binding surface) 96-well assay plate as follows: 20 μl test compound or 7.5% DMSO (final [DMSO]=3%), 20 μl of membranes and SPA bead mixture (final [membrane]=0.625 μg/reaction; final [SPA bead]=50 μg/reaction), 10 μl of ligand stock (final [^125I-IL-8]=0.10 nM). The assay plates were incubated for 2 hours before cpm/well were determined in a Microbeta Trilux counter (Perkin Elmer Life Sciences). IC50 values were quantified using nonlinear regression analysis in GraphPad Prism.
Protocol Using the CXCR2 200 μl Assay
For each 200 μl reaction, a working stock of 0.02 μg/μl hCXCR2-CHO over-expressing membranes with a specific activity of 0.6 pmol/mg (Biosignal Packard) and 2 μg/μl WGA-SPA beads (Perkin Elmer Life Sciences) was prepared in CXCR2 assay buffer (25 mM HEPES, pH 7.4, 2.0 mM CaCl2, 1 mM MgCl2) (Sigma). This mixture was incubated on ice for 5 minutes. A 0.40 nM stock of ligand, [^125I]-IL-8 (Perkin Elmer Life Sciences), was prepared in the CXCR2 assay buffer. Test compounds were first serially diluted by half-logs in DMSO (Sigma) and then diluted […] in CXCR2 assay buffer. The above solutions were added to a Corning NBS (non-binding surface) 96-well assay plate as follows: 50 μl test compound or 10% DMSO (final [DMSO]=2.5%), 100 μl of membranes and SPA bead mixture (final [membrane]=2 μg/reaction; final [SPA bead]=200 μg/reaction), 50 μl of ligand stock (final [^125I-IL-8]=0.10 nM). The assay plates were incubated for 2 hours before cpm/well were determined in a Microbeta Trilux counter (Perkin Elmer Life Sciences). IC50 values were quantified using nonlinear regression analysis in GraphPad Prism.

hCXCR1 = target: T2, hCXCR1 (Homo sapiens, UniProt P25024); test: CXCR1 SPA assay ([125I]-IL-8 binding, incl. alternative Biosignal Packard and Euroscreen membrane protocols); settings: hCXCR1-CHO membranes
T2 construct: purchased Biosignal / Biosignal Packard; Euroscreen (alternative protocol); host or cells: CHO
T2 sequence (P25024 1-350): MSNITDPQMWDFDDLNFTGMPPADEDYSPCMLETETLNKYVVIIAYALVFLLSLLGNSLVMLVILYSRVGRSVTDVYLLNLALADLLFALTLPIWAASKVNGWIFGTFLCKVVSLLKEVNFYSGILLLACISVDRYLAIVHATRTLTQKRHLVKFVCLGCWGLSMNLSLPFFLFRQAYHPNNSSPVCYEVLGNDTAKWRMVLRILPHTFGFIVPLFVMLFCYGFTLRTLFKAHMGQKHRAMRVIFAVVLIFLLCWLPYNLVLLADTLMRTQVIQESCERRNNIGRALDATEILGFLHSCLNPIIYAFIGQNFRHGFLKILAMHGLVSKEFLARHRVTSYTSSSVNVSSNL
Procedure: For each well of a 96 well plate, a reaction mixture of 10 μg hCXCR1-CHO overexpressing membranes (Biosignal) and 200 μg/well WGA-SPA beads (Amersham) in 100 μl was prepared in CXCR1 assay buffer (25 mM HEPES, pH 7.8, 2 mM CaCl2, 1 mM MgCl2, 125 mM NaCl, 0.1% BSA) (Sigma). A 0.4 nM stock of ligand, [125I]-IL-8 (NEN) was prepared in the CXCR1 assay buffer. 20× stock solutions of test compounds were prepared in DMSO (Sigma). A 6× stock solution of IL-8 (R&D) was prepared in CXCR2 assay buffer. The above solutions were added to a 96-well assay plate (PerkinElmer) as follows: 10 μl test compound or DMSO, 40 μl CXCR1 assay buffer or IL-8 stock, 100 μl of reaction mixture, 50 μl of ligand stock (Final [Ligand]=0.1 nM).
Alternative CXCR1 SPA Assay
Protocol Using CXCR1-Expressing Membranes from Biosignal Packard
For each 50 μl reaction, a working stock of 0.25 μg/μl hCXCR1-CHO over-expressing membranes with a specific activity of 0.05 pmol/mg (Biosignal Packard) and 25 μg/μl WGA-SPA beads (Perkin Elmer Life Sciences) was prepared in CXCR1 assay buffer (25 mM HEPES, pH 7.8, 0.1 mM CaCl2, 1 mM MgCl2, 100 mM NaCl) (Sigma). […] The assay plates were incubated for 4 hours before cpm/well were determined in a Microbeta Trilux counter (Perkin Elmer Life Sciences). IC50 values were quantified using nonlinear regression analysis in GraphPad Prism. […]

CCR7 = target: T3, CCR7 (Homo sapiens, UniProt P32248); test: CCR7 [35S]GTPγS exchange assay (SPA, Ba/F3-CCR7 membranes, MIP-3β); format: biochemical; settings: 2 nM MIP-3β
T3 construct: expressed in transfected cells; host or cells: Ba/F3
T3 sequence (P32248 25-378): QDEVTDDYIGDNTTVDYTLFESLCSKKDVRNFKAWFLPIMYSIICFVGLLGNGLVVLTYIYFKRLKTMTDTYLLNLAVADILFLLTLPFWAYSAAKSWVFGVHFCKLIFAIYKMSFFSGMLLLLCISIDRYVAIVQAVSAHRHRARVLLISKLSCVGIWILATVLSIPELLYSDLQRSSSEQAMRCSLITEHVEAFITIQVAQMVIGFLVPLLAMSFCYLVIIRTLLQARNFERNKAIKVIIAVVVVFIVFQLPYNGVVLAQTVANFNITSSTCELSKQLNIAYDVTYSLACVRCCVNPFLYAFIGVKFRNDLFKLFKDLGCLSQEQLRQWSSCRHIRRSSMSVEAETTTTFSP
Procedure: CCR7 Membrane Preparation.
Ba/F3-CCR7 membranes were prepared as previously described (Hipkin et al., J. Biol. Chem., 272, 1997, 13869-76). Cells were pelleted by centrifugation, incubated in homogenization buffer (10 mM Tris-HCl, 5 mM EDTA, 3 mM EGTA, pH 7.6) and 1 μM PMSF for 30 min. on ice. The cells were then lysed with a Dounce homogenizer using stirrer type RZR3 polytron homogenizer (Caframo, Wiarton, Ont.) with 12 strokes at 900 RPM. The intact cells and nuclei were removed by centrifugation at 500×g for 5 min. The cell membranes in the supernatant were then pelleted by centrifugation at 100,000×g for 30 min. The membranes were then resuspended in glygly buffer (20 mM glycylglycine, 1 mM MgCl2, 250 mM sucrose, pH 7.2), aliquoted, quick frozen and stored at −80° C.
CCR7 [^35S]GTPγS Exchange Assay.
The exchange of guanosine 5′-[γ-^35S]triphospate ([^35S]GTPγS, triethylammonium salt; specific activity=1250 Ci/mmol; NEN Boston, Mass.) was measured using a scintillation proximity assay (SPA) as previously described (Cox, et. al., Mol. Pharmacol., 59, 2001, 707-15). […] Membrane-bound [^35S]GTPγS was measured using a 1450 Microbeta Trilux counter (Wallac, Gaithersburg, Md.).

## Cc1cc([C@H](NC2=NS(=O)(=O)C=C2Nc2cccc(C(=O)N(C)C)c2O)C(C)C)oc1C [Example 6]
hCXCR2
  Ki: 19 nM and 7.6 to 51 nM
hCXCR1
  Ki: 345 nM

## CC[C@@H](NC1=CS(=O)(=O)N=C1Nc1cccc(C(=O)N(C)C)c1O)c1ccccc1 [Example 4]
hCXCR2
  Ki: 7.6 to 51 nM

## CCOC(=O)C1=C(Nc2cccc(C(=O)N(C)C)c2O)C(N[C@H](CC)c2cc(C(C)C)co2)=NS1(=O)=O [Example 162]
CCR7
  EC50: 9500 nM

## CC[C@@H](NC1=NS(=O)(=O)C=C1Nc1cccc(C(=O)N(C)C)c1O)c1ccc(C)o1 [Example 2]
hCXCR2
  Ki: 7.6 nM and 7.6 to 51 nM

## CCOC(=O)C1=C(Nc2cccc(C(=O)N(C)C)c2O)C(N[C@@H](c2cc(C)c(C)o2)C(C)C)=NS1(=O)=O [Example 5]
hCXCR2
  Ki: 7.6 to 51 nM

## CCOC(=O)C1=C(Nc2cccc(C(=O)N(C)C)c2O)C(N[C@H](CC)c2ccc(C)o2)=NS1(=O)=O [Example 1]
hCXCR2
  Ki: 7.6 to 51 nM

## CCOC(=O)C1=C(N[C@H](CC)c2ccccc2)C(Nc2cccc(C(=O)N(C)C)c2O)=NS1(=O)=O [Example 3]
hCXCR2
  Ki: 7.6 to 51 nM
